The target of experiment [1] is HCV NS3/4A protease genotype 1b (Hepatitis C virus genotype 1b, UniProt P26663). The experiment in a line: HCV NS3/4A protease time-resolved fluorescence (TRF) assay, Ki against genotype 1b. Particulars: IC50 [gt-1b] (nM), NS3/4A genotype 1b, enzyme 0.2 nM. It counts as biochemical. Put shortly:
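Time-resolved fluorescence readout of NS3/4A cleavage of 25 nM europium-labelled peptide over 2.5 h at room temperature, enzyme levels set for signal/background 10–30 (0.2, 0.4, 0.025 nM for 1b, A156T, 3a). Ki by IC50=Ki(1+[S]/KM).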

The test system of experiment [2] is HCV genotype 1b replicon. The experiment in a line: HCV replicon assay, genotype 1b replicon EC50. It counts as cell-based, Hepatitis C virus. Conditions: Hepatitis C virus, genotype 1b replicon, read-out: EC50 [gt-1b]. The method in brief: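 Stable neomycin phosphotransferase-encoding replicon cell lines, kept under G418 selection beforehand, were plated with a compound dilution series without G418 and incubated 24-48 hours. Replicon RNA was then quantified, or luciferase activity read. EC50 was calculated as percent of DMSO control by four-parameter fit.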

Read-outs that look alike come from different tables or passages of the source.

Regarding `COc1ccc2nc(C)c3c(c2c1)CC[C@]1(C[C@H]2C(=O)N[C@]4(C(=O)NS(=O)(=O)C5(C)CC5)C[C@H]4/C=C\CCCCC[C@H](NC(=O)OC(C)(C)C(F)(F)F)C(=O)N2C1)O3` [Example 254, 1,1,1-trifluoro-2-methylpropan-2-yl [(2R,6S,12Z,13aS,14aR,16aS)-9′-methoxy-5′-methyl-14a-{[(1-methylcyclopropyl)sulfonyl]carbamoyl}-5,16-dioxo-1,1′,2′,5,6,7,8,9,10,11,13a,14,14a,15,16,16a-hexadecahydrospiro[cyclopropa[e]pyrrolo[1,2-a][1,4]diazacyclopentadecine-2,3′-pyrano[2,3-c]quinolin]-6-yl]carbamate], in experiment [1] (K+ salt), the IC50 – broadly, the concentration at which inhibition is half-maximal – worked out at 0.01 nM. In addition, in experiment [2] (K+ salt), the EC50 (in general, the concentration giving half of the maximal effect) was determined as 1.58 nM.
Consider `Cc1nc2ccc(OC(F)F)cc2c2c1O[C@]1(CC2)C[C@H]2C(=O)N[C@]3(C(=O)NS(=O)(=O)C4(C)CC4)C[C@H]3/C=C\CCCCC[C@H](NC(=O)OC(C)(C)C)C(=O)N2C1` [Example 256, tert-butyl [(2R,6S,12Z,13aS,14aR,16aS)-9′-(difluoromethoxy)-5′-methyl-14a-{[(1-methylcyclopropyl)sulfonyl]carbamoyl}-5,16-dioxo-1,1′,2′,5,6,7,8,9,10,11,13a,14,14a,15,16,16a-hexadecahydrospiro[cyclopropa[e]pyrrolo[1,2-a][1,4]diazacyclopentadecine-2,3′-pyrano[2,3-c]quinolin]-6-yl]carbamate], for which, in experiment [1], inhibition was half-maximal at 0.005 nM (IC50). The EC50 in experiment [2] came out at 3.08 nM.
On the same counts, the results for `Cc1nc2ccccc2c2c1O[C@]1(CC2)C[C@H]2C(=O)N[C@]3(C(=O)NS(=O)(=O)C4(C)CC4)C[C@H]3/C=C\CCCCC[C@H](NC(=O)OC3C[C@H]4C=C[C@@H]3C4)C(=O)N2C1` (stereo partly drawn) [Example 257, (1S,4S)-bicyclo[2.2.1]hept-5-en-2-yl [(2R,6S,12Z,13aS,14aR,16aS)-5′-methyl-14a-{[(1-methylcyclopropyl)sulfonyl]carbamoyl}-5,16-dioxo-1,1′,2′,5,6,7,8,9,10,11,13a,14,14a,15,16,16a-hexadecahydrospiro[cyclopropa[e]pyrrolo[1,2-a][1,4]diazacyclopentadecine-2,3′-pyrano[2,3-c]quinolin]-6-yl]carbamate] are 0.018 nM and 3.25 nM.
Regarding `Cc1nc2ccccc2c2c1O[C@]1(CC2)C[C@H]2C(=O)N[C@]3(C(=O)NS(=O)(=O)C4(C)CC4)C[C@H]3/C=C\CCCCC[C@H](NC(=O)OC(C(F)(F)F)C(F)(F)F)C(=O)N2C1` [Example 258, 1,1,1,3,3,3-hexafluoropropan-2-yl [(2R,6S,12Z,13aS,14aR,16aS)-5′-methyl-14a-{[(1-methylcyclopropyl)sulfonyl]carbamoyl}-5,16-dioxo-1,1′,2′,5,6,7,8,9,10,11,13a,14,14a,15,16,16a-hexadecahydrospiro[cyclopropa[e]pyrrolo[1,2-a][1,4]diazacyclopentadecine-2,3′-pyrano[2,3-c]quinolin]-6-yl]carbamate], the IC50 in experiment [1] is 0.022 nM. Moreover, the EC50 in experiment [2] worked out at 717 nM.
On the same counts, the results for `COc1ccc2nc(C)c3c(c2c1)C(F)(F)C[C@]1(C[C@H]2C(=O)N[C@]4(C(=O)NS(=O)(=O)C5(C)CC5)C[C@H]4/C=C\CCCCC[C@H](NC(=O)OC4CCCC4)C(=O)N2C1)O3` [Example 260, cyclopentyl [(2S,6S,12Z,13aS,14aR,16aS)-1′,1′-difluoro-9′-methoxy-5′-methyl-14a-{[(1-methylcyclopropyl)sulfonyl]carbamoyl}-5,16-dioxo-1,1′,2′,5,6,7,8,9,10,11,13a,14,14a,15,16,16a-hexadecahydrospiro[cyclopropa[e]pyrrolo[1,2-a][1,4]diazacyclopentadecine-2,3′-pyrano[2,3-c]quinolin]-6-yl]carbamate] are 0.006 nM and 5.22 nM.
The molecule `COc1ccc2nc(C)c3c(c2c1)CC[C@]1(C[C@H]2C(=O)N[C@]4(C(=O)NS(=O)(=O)C5(C)CC5)C[C@H]4/C=C\CCCCC[C@H](NC(=O)OC4CC5CC(=O)OC5C4)C(=O)N2C1)O3` (stereo partly drawn) [Example 261, 2-oxohexahydro-2H-cyclopenta[b]furan-5-yl [(2R,6S,12Z,13aS,14aR,16aS)-9′-methoxy-5′-methyl-14a-{[(1-methylcyclopropyl)sulfonyl]carbamoyl}-5,16-dioxo-1,1′,2′,5,6,7,8,9,10,11,13a,14,14a,15,16,16a-hexadecahydrospiro[cyclopropa[e]pyrrolo[1,2-a][1,4]diazacyclopentadecine-2,3′-pyrano[2,3-c]quinolin]-6-yl]carbamate] came in with an IC50 in experiment [1] of 0.008 nM. Also, the EC50 in experiment [2] amounted to 192 nM.
On to `COc1ccc2nc(C)c3c(c2c1)C(F)(F)C[C@]1(C[C@H]2C(=O)N[C@]4(C(=O)NS(=O)(=O)C5(C)CC5)C[C@H]4/C=C\CCCCC[C@H](NC(=O)O[C@H](C)C(C)C)C(=O)N2C1)O3` [Example 263, (2R)-3-methylbutan-2-yl [(2S,6S,12Z,13aS,14aR,16aS)-1′,1′-difluoro-9′-methoxy-5′-methyl-14a-{[(1-methylcyclopropyl)sulfonyl]carbamoyl}-5,16-dioxo-1,1′,2′,5,6,7,8,9,10,11,13a,14,14a,15,16,16a-hexadecahydrospiro[cyclopropa[e]pyrrolo[1,2-a][1,4]diazacyclopentadecine-2,3′-pyrano[2,3-c]quinolin]-6-yl]carbamate], for which the IC50 in experiment [1] (K+ salt) was 0.007 nM. The EC50 in experiment [2] (K+ salt) is 5.3 nM.
As for `COc1ccc2nc(C)c3c(c2c1)C(F)(F)C[C@]1(C[C@H]2C(=O)N[C@]4(C(=O)NS(=O)(=O)C5(C)CC5)C[C@H]4/C=C\CCCCC[C@H](NC(=O)O[C@@H](C)C(C)C)C(=O)N2C1)O3` [Example 264, (2S)-3-methylbutan-2-yl [(2S,6S,12Z,13aS,14aR,16aS)-1′,1′-difluoro-9′-methoxy-5′-methyl-14a-{[(1-methylcyclopropyl)sulfonyl]carbamoyl}-5,16-dioxo-1,1′,2′,5,6,7,8,9,10,11,13a,14,14a,15,16,16a-hexadecahydrospiro[cyclopropa[e]pyrrolo[1,2-a][1,4]diazacyclopentadecine-2,3′-pyrano[2,3-c]quinolin]-6-yl]carbamate], in experiment [1] (K+ salt), the IC50 is 0.013 nM. The EC50 in experiment [2] (K+ salt) was 4.3 nM.
In the case of `COc1ccc2nc(C)c3c(c2c1)C(F)(F)C[C@]1(C[C@H]2C(=O)N[C@]4(C(=O)NS(=O)(=O)C5(C)CC5)C[C@H]4/C=C\CCCCC[C@H](NC(=O)OC(C)(C)C(F)(F)F)C(=O)N2C1)O3` [Example 265, 1,1,1-trifluoro-2-methylpropan-2-yl [(2S,6S,12Z,13aS,14aR,16aS)-1′,1′-difluoro-9′-methoxy-5′-methyl-14a-{[(1-methylcyclopropyl)sulfonyl]carbamoyl}-5,16-dioxo-1,1′,2′,5,6,7,8,9,10,11,13a,14,14a,15,16,16a-hexadecahydrospiro[cyclopropa[e]pyrrolo[1,2-a][1,4]diazacyclopentadecine-2,3′-pyrano[2,3-c]quinolin]-6-yl]carbamate], the IC50 in experiment [1] (K+ salt) amounted to 0.007 nM. For the same molecule, the EC50 in experiment [2] (K+ salt) came to 3.35 nM.
On to `Cc1nc2ccc(OC(F)F)cc2c2c1O[C@]1(CC2)C[C@H]2C(=O)N[C@]3(C(=O)NS(=O)(=O)C4(C)CC4)C[C@H]3/C=C\CCCCC[C@H](NC(=O)OCC(C)C)C(=O)N2C1` [Example 267, 2-methylpropyl [(2R,6S,12Z,13aS,14aR,16aS)-9′-(difluoromethoxy)-5′-methyl-14a-{[(1-methylcyclopropyl)sulfonyl]carbamoyl}-5,16-dioxo-1,1′,2′,5,6,7,8,9,10,11,13a,14,14a,15,16,16a-hexadecahydrospiro[cyclopropa[e]pyrrolo[1,2-a][1,4]diazacyclopentadecine-2,3′-pyrano[2,3-c]quinolin]-6-yl]carbamate], for which the IC50 in experiment [1] (K+ salt) is 0.006 nM. Besides, in experiment [2] (K+ salt), the EC50 was 3.56 nM.
On the same counts, the results for `Cc1nc2ccc(OC(F)F)cc2c2c1O[C@]1(CC2)C[C@H]2C(=O)N[C@]3(C(=O)NS(=O)(=O)C4(C)CC4)C[C@H]3/C=C\CCCCC[C@H](NC(=O)OC3CCCC3)C(=O)N2C1` [Example 268, cyclopentyl [(2R,6S,12Z,13aS,14aR,16aS)-9′-(difluoromethoxy)-5′-methyl-14a-{[(1-methylcyclopropyl)sulfonyl]carbamoyl}-5,16-dioxo-1,1′,2′,5,6,7,8,9,10,11,13a,14,14a,15,16,16a-hexadecahydrospiro[cyclopropa[e]pyrrolo[1,2-a][1,4]diazacyclopentadecine-2,3′-pyrano[2,3-c]quinolin]-6-yl]carbamate] are 0.003 nM and 4.03 nM.
Turning to `COc1ccc2c3c(c(C4CC4)nc2c1)O[C@]1(CC3)C[C@H]2C(=O)N[C@]3(C(=O)NS(=O)(=O)C4(C)CC4)C[C@H]3/C=C\CCCCC[C@H](NC(=O)CC(C)(C)C)C(=O)N2C1` [Example 269, (2R,6S,12Z,13aS,14aR,16a5)-5′-cyclopropyl-6-[(3,3-dimethylbutanoyl)amino]-8′-methoxy-N-[(1-methylcyclopropyl)sulfonyl]-5,16-dioxo-1,1′,2′,6,7,8,9,10,11,13a,14,15,16,16a-tetradecahydrospiro[cyclopropa[e]pyrrolo[1,2-a][1,4]diazacyclopentadecine-2,3′-pyrano[2,3-c]quinoline]-14a(5H)-carboxamide], the IC50 in experiment [1] (HCOOH salt) worked out at 0.337 nM. For the same molecule, in experiment [2] (HCOOH salt), the EC50 came out at 11.9 nM.
